Measurements reported in US20220409620A1, “REDUCING IMMUNOGENICITY TO PEGLOTICASE” (Horizon Pharma Rheumatology LLC, priority 2016, published 2022).

Test system: adult patients with uncontrolled gout
Experiment: Serum uric acid (sUA) levels and sUA responder rate, open-label study of pegloticase with MTX (MIRROR OL)
Format: in vivo, human
Settings: Month 6 sUA Responders
Description: The primary objective is to estimate the response rate during Month 6 (Weeks 20, 22, and 24), as measured by the sustained normalization of serum uric acid (SUA) to <6 mg/dL for at least 80% of the time during Month 6 in subjects receiving KXX with MTX.
The primary efficacy outcome endpoint is the sustained normalization of SUA to <6 mg/dL for at least 80% of the time during month 6 (weeks 20, 22, and 24) in subjects receiving KXX with MTX. […] Participants who achieve this endpoint were classified as “responders.” Serum uric acid (SUA) responders may also be defined as participants achieving and maintaining SUA <6 mg/dL for at least 80% of the time during Month 6 (Weeks 20, 22, and 24).
Blood samples may be collected prior to each pegloticase infusion for measurement of SUA levels using the Beckman Coulter AU System Uric Acid procedure. Participants were declared “non-responders” if there were SUA measures >6 mg/dL at 2 consecutive study visits beginning with the week 2 visit. […] This assumption and subsequent discontinuation of pegloticase was consistent with the protocol of large phase III randomized controlled trials and the product label. A formal stopping rule was 2 occasions of SUA levels of greater than 6 mg/dL.
Clinical Chemistry—Blood samples were collected prior to each pegloticase infusion for measurement of SUA levels (primary efficacy parameter) using the Beckman Coulter AU System Uric Acid procedure. In this procedure uric acid is converted to hydrogen peroxide. Hydrogen peroxide reacts with reagent to produce a chromophore which is read bichromatically at 660/800 nm. The amount of dye formed is proportional to the uric acid concentration in the sample.
Serum samples for measurement of SUA levels were collected at the Screening Visit, the Week −4 Visit (prior to the first dose of MTX), and the Week −2 Visit during the MTX Run-in Period; within 48 hours prior to each pegloticase infusion and after the end of each pegloticase infusion prior to discharge from the site during the Pegloticase+IMM Period; at the non-infusion Week 52/End of Study/Early Termination Visits and at the Post Treatment 3 and 6 Month Follow-up Visits. Additional serum samples for SUA levels were collected at optional non-infusion (Frequent Sampling) Visits at Weeks 1 and 7. […] Subjects with SUA level >6 mg/dL at 2 consecutive visits beginning at Week 2 visit discontinued treatment, completed the End of Pegloticase Infusion Visit procedures within 2 weeks and continued the subject visits according to the protocol (without treatment).
Efficacy analyses were performed using the modified intention-to-treat (mITT) population, defined as all enrolled subjects who received ≥1 dose of pegloticase. The proportion of Month 6 responders was summarized, along with a 95% confidence interval for the proportion. The proportion of Month 3 and overall (Months 3 and 6 combined) responders was analyzed similarly.
A subject was declared a non-responder if the subject had SUA level >6 mg/dL at 2 consecutive study visits beginning with the Week 2 Visit. In addition, a subject who withdraws from study treatment for any reason after the first dose of pegloticase in the KXX+MTX Period and prior to Month 6 (for the primary endpoint) or Month 3 (for the secondary endpoint) was considered a non-responder if SUA values were not collected at the planned time points.
Patients were administered oral MTX (15 mg/week) and folate (1 mg/day) 4 weeks prior to the first pegloticase infusion (Day 1) and throughout the pegloticase treatment period. Blood was drawn prior to each infusion to measure sUA level, monitor clinical parameters, and examine for ADA development. All patients followed typical IR prophylaxis protocols (fexofenadine one day before and the morning of each infusion and acetaminophen and IV corticosteroid the morning of each infusion).

pegloticase
Serum Uric Acid, Observed, Mean (SD) (Week 28-Pre-Infusion, n=8): 0.30 (0.000) mg/dL | Serum Uric Acid, Observed, Median (Week 28-Pre-Infusion, n=8): 0.30 mg/dL | sUA <6 mg/dL, n (%) (Week 28-Pre-Infusion, n=8): 8 (100%) | Serum Uric Acid, Change from Baseline, Mean (SD) (Week 30-Pre-Infusion, n=8): −9.11 (3.293) mg/dL | Serum Uric Acid, Change from Baseline, Median (Week 30-Pre-Infusion, n=8): -8.95 mg/dL | Serum Uric Acid, Observed, Mean (SD) (Week 30-Pre-Infusion, n=8): 0.30 (0.000) mg/dL | Serum Uric Acid, Observed, Median (Week 30-Pre-Infusion, n=8): 0.30 mg/dL | sUA <6 mg/dL, n (%) (Week 30-Pre-Infusion, n=8): 8 (100%) | Serum Uric Acid, Change from Baseline, Mean (SD) (Week 32-Post-Infusion, n=8): −9.11 (3.293) mg/dL | Serum Uric Acid, Change from Baseline, Median (Week 32-Post-Infusion, n=8): -8.95 mg/dL | Serum Uric Acid, Observed, Mean (SD) (Week 32-Post-Infusion, n=8): 0.30 (0.000) mg/dL | Serum Uric Acid, Observed, Median (Week 32-Post-Infusion, n=8): 0.30 mg/dL | sUA <6 mg/dL, n (%) (Week 32-Post-Infusion, n=8): 8 (100%) | Serum Uric Acid, Change from Baseline, Mean (SD) (Week 32-Pre-Infusion, n=10): −8.99 (2.961) mg/dL | Serum Uric Acid, Change from Baseline, Median (Week 32-Pre-Infusion, n=10): -8.95 mg/dL | Serum Uric Acid, Observed, Mean (SD) (Week 32-Pre-Infusion, n=10): 0.30 (0.000) mg/dL | Serum Uric Acid, Observed, Median (Week 32-Pre-Infusion, n=10): 0.30 mg/dL | sUA <6 mg/dL, n (%) (Week 32-Pre-Infusion, n=10): 10 (100%) | Serum Uric Acid, Change from Baseline, Mean (SD) (Week 34-Post-Infusion, n=8): −9.11 (3.293) mg/dL | Serum Uric Acid, Change from Baseline, Median (Week 34-Post-Infusion, n=8): -8.95 mg/dL | Serum Uric Acid, Observed, Mean (SD) (Week 34-Post-Infusion, n=8): 0.30 (0.000) mg/dL | Serum Uric Acid, Observed, Median (Week 34-Post-Infusion, n=8): 0.30 mg/dL | sUA <6 mg/dL, n (%) (Week 34-Post-Infusion, n=8): 8 (100%) | Serum Uric Acid, Change from Baseline, Mean (SD) (Week 34-Pre-Infusion, n=10): −8.47 (3.248) mg/dL | Serum Uric Acid, Change from Baseline, Median (Week 34-Pre-Infusion, n=10): -7.95 mg/dL | Serum Uric Acid, Observed, Mean (SD) (Week 34-Pre-Infusion, n=10): 0.82 (1.046) mg/dL | Serum Uric Acid, Observed, Median (Week 34-Pre-Infusion, n=10): 0.30 mg/dL | sUA <6 mg/dL, n (%) (Week 34-Pre-Infusion, n=10): 10 (100%) | Serum Uric Acid, Change from Baseline, Mean (SD) (Week 36-Post-Infusion, n=6): −9.38 (3.799) mg/dL | Serum Uric Acid, Change from Baseline, Median (Week 36-Post-Infusion, n=6): -9.20 mg/dL | Serum Uric Acid, Observed, Mean (SD) (Week 36-Post-Infusion, n=6): 0.30 (0.000) mg/dL | Serum Uric Acid, Observed, Median (Week 36-Post-Infusion, n=6): 0.30 mg/dL | sUA <6 mg/dL, n (%) (Week 36-Post-Infusion, n=6): 6 (100%) | Serum Uric Acid, Change from Baseline, Mean (SD) (Week 36-Pre-Infusion, n=9): −7.90 (4.094) mg/dL | Serum Uric Acid, Change from Baseline, Median (Week 36-Pre-Infusion, n=9): -8.60 mg/dL | Serum Uric Acid, Observed, Mean (SD) (Week 36-Pre-Infusion, n=9): 1.58 (2.425) mg/dL | Serum Uric Acid, Observed, Median (Week 36-Pre-Infusion, n=9): 0.30 mg/dL | sUA <6 mg/dL, n (%) (Week 36-Pre-Infusion, n=9): 8 ( 88.9%) | Serum Uric Acid, Change from Baseline, Mean (SD) (Week 38-Pre-Infusion, n=5): −8.41 (5.229) mg/dL | Serum Uric Acid, Change from Baseline, Median (Week 38-Pre-Infusion, n=5): -8.60 mg/dL | Serum Uric Acid, Observed, Mean (SD) (Week 38-Pre-Infusion, n=5): 0.93 (1.583) mg/dL | Serum Uric Acid, Observed, Median (Week 38-Pre-Infusion, n=5): 0.30 mg/dL | sUA <6 mg/dL, n (%) (Week 38-Pre-Infusion, n=5): 5 (100%) | Serum Uric Acid, Change from Baseline, Mean (SD) (Week 40-Pre-Infusion, n=3): −11.30 (3.686) mg/dL | Serum Uric Acid, Change from Baseline, Median (Week 40-Pre-Infusion, n=3): -9.80 mg/dL | Serum Uric Acid, Observed, Mean (SD) (Week 40-Pre-Infusion, n=3): 0.30 (0.000) mg/dL | Serum Uric Acid, Observed, Median (Week 40-Pre-Infusion, n=3): 0.30 mg/dL | sUA <6 mg/dL, n (%) (Week 40-Pre-Infusion, n=3): 3 (100%) | Serum Uric Acid, Change from Baseline, Mean (SD) (Week 42-Pre-Infusion, n=3): −11.30 (3.686) mg/dL | Serum Uric Acid, Change from Baseline, Median (Week 42-Pre-Infusion, n=3): -9.80 mg/dL | Serum Uric Acid, Observed, Mean (SD) (Week 42-Pre-Infusion, n=3): 0.30 (0.000) mg/dL | Serum Uric Acid, Observed, Median (Week 42-Pre-Infusion, n=3): 0.30 mg/dL | sUA <6 mg/dL, n (%) (Week 42-Pre-Infusion, n=3): 3 (100%) | Serum Uric Acid, Change from Baseline, Mean (SD) (Week 44-Pre-Infusion, n=3): −10.55 (4.625) mg/dL | Serum Uric Acid, Change from Baseline, Median (Week 44-Pre-Infusion, n=3): -9.80 mg/dL | Serum Uric Acid, Observed, Mean (SD) (Week 44-Pre-Infusion, n=3): 1.05 (1.305) mg/dL | Serum Uric Acid, Observed, Median (Week 44-Pre-Infusion, n=3): 0.30 mg/dL | sUA <6 mg/dL, n (%) (Week 44-Pre-Infusion, n=3): 3 (100%) | Serum Uric Acid, Change from Baseline, Mean (SD) (Week 46-Pre-Infusion, n=2): −12.65 (4.031) mg/dL | Serum Uric Acid, Change from Baseline, Median (Week 46-Pre-Infusion, n=2): -12.65 mg/dL | Serum Uric Acid, Observed, Mean (SD) (Week 46-Pre-Infusion, n=2): 0.30 (0.000) mg/dL | Serum Uric Acid, Observed, Median (Week 46-Pre-Infusion, n=2): 0.30 mg/dL | sUA <6 mg/dL, n (%) (Week 46-Pre-Infusion, n=2): 2 (100%)
